Data: patent publication US20250154198A1, “PEPTIDE INHIBITORS OF INTERLEUKIN-23 RECEPTOR” (Zealand Pharma A/S, priority 2021, published 2025)
Read-outs that look alike come from different tables or passages of the source. Blank lines part the entries; values can stand above or below the molecule they belong to. *1 amine or outer side, *2 acyl side, *3 side chain or, on linkers, in order; H or OH if unused. Where a SMILES comes first, the peptide text is derived from it. Bridges are numbered along the chain shown (N, C = ends). [ ]: non-standard residue; d: D form. 1,3‑dibromopropan‑2‑one = linker (CAS 816-39-7) joining two Cys as 1,3-dithio-propan-2-one bridge -SCH2C(=O)CH2S-; 2Nal = N[C@@H](Cc1ccc2ccccc2c1)C(=O)O; AEF = NCCOc1ccc(C[C@H](N)C(=O)O)cc1; X20 = O=C(c1ccc(CCN[*:1])cc1)[*:2]; X24 = O=C(CCc1ccc(N[*:1])cc1)[*:2]; X1 = O=C(Cc1ccc(CN[*:1])cc1)[*:2]; αMeL = CC(C)C[C@](C)(N)C(=O)O; CH2COCH2 = O=C(C[*:1])C[*:2]; 4Amb = NCc1ccc(C(=O)O)cc1

Tests used:
human IL-23R = target: T1, human IL-23R (Homo sapiens, UniProt Q5VWK5); assay: Binding assay (NanoBRET displacement of fluorophore-labelled reference compound) for estimating binding affinity to human IL-23R
T1 construct: UniProtKB—Q5VWK5, amino acids 22-629; secretion signal of the plasmid (Promega N1371); expressed in transfected cells
T1 sequence (Q5VWK5 22-629): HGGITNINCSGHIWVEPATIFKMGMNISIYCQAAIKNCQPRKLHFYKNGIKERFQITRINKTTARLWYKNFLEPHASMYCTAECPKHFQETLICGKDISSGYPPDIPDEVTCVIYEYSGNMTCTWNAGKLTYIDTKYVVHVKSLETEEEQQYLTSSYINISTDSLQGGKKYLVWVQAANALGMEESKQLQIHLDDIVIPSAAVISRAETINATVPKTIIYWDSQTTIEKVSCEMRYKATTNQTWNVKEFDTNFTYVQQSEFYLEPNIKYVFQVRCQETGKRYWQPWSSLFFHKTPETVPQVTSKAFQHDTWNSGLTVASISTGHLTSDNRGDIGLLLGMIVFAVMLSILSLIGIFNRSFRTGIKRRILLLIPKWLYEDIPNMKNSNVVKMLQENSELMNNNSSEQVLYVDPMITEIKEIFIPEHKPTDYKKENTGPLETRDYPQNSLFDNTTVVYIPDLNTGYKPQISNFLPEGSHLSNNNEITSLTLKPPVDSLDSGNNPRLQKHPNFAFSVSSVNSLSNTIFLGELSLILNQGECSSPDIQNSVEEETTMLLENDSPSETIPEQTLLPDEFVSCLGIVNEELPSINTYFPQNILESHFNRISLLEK
From the text: Binding Assay for Estimating Binding Affinity of Compounds to Human IL-23R
The compound binding affinity for IL-23R was estimated by the ability of compounds to displace a fluorophore-labelled reference compound from the human IL-23R. The assay principle relies on Bioluminescence Resonance Energy Transfer (BRET) between a fluorophore-labelled reference compound binding to the IL-23R part of a fusion protein consisting of the IL-23R fused to a Nanoluc luciferase enzyme (Nanoluc). The Nanoluc is placed in the N-terminus in close proximity to the binding domain of the ligand. Upon close proximity between the fluorophore of the fluorophore-labelled compound and the Nanoluc of the fusion protein, bioluminescence energy generated from conversion of a Nanoluc substrate, is transferred to the fluorophore resulting in an increase in BRET. In presence of an unlabelled compound, the unlabelled compound displaces the fluorophore-labelled peptide from its binding site resulting in a decrease in BRET. The concentration for which half of the fluorophore-labelled peptide is displaced by the unlabelled compound depends on the affinity of the compound for the IL-23R, and is termed the IC50 concentration. An estimated affinity (K) of the unlabelled compound for the IL-23R may be calculated using the Cheng-Prussov equation, which takes into account the concentration of the fluorophore-labelled compound used, and the affinity of the fluorophore-labelled compound for IL-23R.
The plasmid also contained a gene to confer resistance for the antibiotic hygromycin. A cell line stably expressing the Nluc-IL23R fusion protein was generated by transfection of HEK293 cells with the expression plasmid and selected with hygromycin for 3 weeks in Growth medium consisting of DMEM w/Glutamax-I containing, 10% V/V FBS, 1% V/V P/S, 1 mM Sodium Pyruvate, and 1×NEAA, and 0.3 mg/mL hygromycin. The remaining cells were propagated and considered a stable expressing Nluc-IL23R fusion protein pool clone.
Cells expressing the Nluc-IL23R fusion protein were expanded in Growth medium and membranes prepared by homogenization of a cell pellet from 18 T175 flasks (4° C. in subsequent steps). The cell pellet was lysed Tris 10 mM, 7.5, 1 mM EDTA and protease inhibitors (Complete, Roche) and homogenized using a 15 mL glass-dounce by 50 strokes. The homogenate was spun at spin @1500 rpm for 10 min, the supernatant transferred to SV-34 tubes and spun at 40000 g for 20 min at 4° C. to pellet the crude membranes. The supernatant was then removed, the pellet resuspended in 5 mL buffer containing 50 mM HEPES pH 7.4, 5 mM EGTA, and 5 mM MgCl2, and homogenized. Aliquots of the resuspended and homogenized membranes containing the Nluc-IL23R fusion protein were stored at −80° C. until use.
The plate was sealed with light impermeable plate seals, and incubated on a orbital shaker 400 rpm for 2 hours at room temperature. To determine the BRET ratio, the plate seal was removed and 25 μL of the Nanoluc substrate (Promega N1572) diluted 1:500 was added to each well and incubated for 1-2 minutes on an orbital shaker at 400 rpm. […] The BRET ratio was calculated as the fluorescence from the TAMRA/nanoluc bioluminescence. The IC50 for each compound was determined by computer-aided curve fitting using a 4-parameter logistic (4PL) non-linear model.

[1] = target: T2, human IL-23R endogenously expressed on DB cells (CRL-2289) (human, UniProt Q5VWK5 24-629); assay: cell-based or functional assay
T2 sequence (looked up): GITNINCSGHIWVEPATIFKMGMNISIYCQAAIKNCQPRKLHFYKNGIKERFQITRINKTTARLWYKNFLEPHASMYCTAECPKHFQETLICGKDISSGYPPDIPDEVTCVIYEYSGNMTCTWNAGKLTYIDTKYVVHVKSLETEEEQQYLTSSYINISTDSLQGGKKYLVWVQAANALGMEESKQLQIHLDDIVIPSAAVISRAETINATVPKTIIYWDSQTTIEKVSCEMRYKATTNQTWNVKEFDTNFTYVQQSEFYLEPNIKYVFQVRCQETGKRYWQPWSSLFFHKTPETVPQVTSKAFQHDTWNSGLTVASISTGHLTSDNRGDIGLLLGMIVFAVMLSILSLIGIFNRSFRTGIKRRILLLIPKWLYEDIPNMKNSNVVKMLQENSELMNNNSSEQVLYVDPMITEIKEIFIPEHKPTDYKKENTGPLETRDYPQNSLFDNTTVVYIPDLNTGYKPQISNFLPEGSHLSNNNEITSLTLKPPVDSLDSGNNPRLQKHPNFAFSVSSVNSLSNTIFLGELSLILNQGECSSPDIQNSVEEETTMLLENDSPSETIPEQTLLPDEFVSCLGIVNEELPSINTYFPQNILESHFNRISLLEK

[2] = Table 3-1, read-out: Ki hIL-23R
[3] = Table 2-10b, read-out: Ki IL-23R

Molecule: CC(C)C[C@]1(C)NC(=O)[C@H](Cc2ccc3ccccc3c2)NC(=O)[C@H](Cc2ccc(OCCN)cc2)NC(=O)[C@@H]2CCC(=O)NCCC[C@H](NC(=O)[C@H](CO)NC(=O)c3cccc(c3)CNC(=O)CC[C@@H](C(=O)N[C@@H](CCCNC(=N)N)C(N)=O)NC1=O)C(=O)N[C@@H](Cc1c[nH]c3ccccc13)C(=O)N[C@@H](CCC(N)=O)C(=O)N2 (relative stereo) [Compound 68, [(3-Aminomethyl)benzoyl](1c)*S[Orn](2c)WQE(2c)[Y(2-aminoethoxy)][2-Nal][2-Me-Leu]E(1c)R-[NH2]]
Ki (human IL-23R; [2]): 3.32 nM

Molecule: CC(C)C[C@]1(C)NC(=O)[C@H](Cc2c[nH]c3ccccc23)NC(=O)[C@H](Cc2c[nH]c3ccccc23)NC(=O)[C@@H]2CSCC(=O)CSC[C@H](NC(=O)[C@H]([C@@H](C)O)NC(=O)[C@@H](NC(=O)CN)CSCC(=O)CSC[C@@H](C(=O)N[C@@H](CO)C(N)=O)NC1=O)C(=O)N[C@@H](Cc1c[nH]c3ccccc13)C(=O)N[C@@H](CCC(=O)O)C(=O)N2 (single isomer, unassigned) [I5 (isomer 3), H-GC(1a)TC(2a)WEC(2a)WW[2-Me-Leu]C(1a)S-[NH2], reference compound]
potency for IL-23R (in words) (human IL-23R; in comparison with Protagonist's Compound C): lower potency

Molecule: CC(C)C[C@]1(C)NC(=O)[C@H](Cc2ccc3ccccc3c2)NC(=O)[C@H](Cc2ccc(OCCN)cc2)NC(=O)[C@@H]2CSCC(=O)CSC[C@H](NC(=O)[C@H](CO)NC(=O)c3ccc(cc3)CNC(=O)CC[C@@H](C(=O)N[C@@H](CCCNC(=N)N)C(N)=O)NC1=O)C(=O)N[C@@H](Cc1c[nH]c3ccccc13)C(=O)N[C@@H](CCC(N)=O)C(=O)N2 [Compound 49, [(4-Aminomethyl)benzoyl](1c)*SC(2a)WQC(2a)[Y(2-aminoethoxy)][2-Nal][2-Me-Leu]E(1c)R-[NH2]] ([4Amb]SCWQC[AEF][2Nal][αMeL]ER-NH2; linker 3-6 via CH2COCH2; lactam N-10)
Ki (human IL-23R; [3]): 1.16 nM

Molecule: CC(C)C[C@]1(C)NC(=O)[C@H](Cc2ccc3ccccc3c2)NC(=O)[C@H](Cc2ccc(OCCN)cc2)NC(=O)[C@@H]2CSCC(=O)CSC[C@H](NC(=O)[C@H](CO)NC(=O)CCc3ccc(cc3)NC(=O)CC[C@@H](C(=O)N[C@@H](CCCNC(=N)N)C(N)=O)NC1=O)C(=O)N[C@@H](Cc1c[nH]c3ccccc13)C(=O)N[C@@H](CCC(N)=O)C(=O)N2 [Compound 51, [3-(4-Aminophenyl)propanoyl](1c)*SC(2a)WQC(2a)[Y(2-aminoethoxy)][2-Nal][2-Me-Leu]E(1c)R-[NH2]] ([X24]SCWQC[AEF][2Nal][αMeL]ER-NH2; linker 3-6 via CH2COCH2; lactam N-10)
Ki (human IL-23R; [3]): 2 nM

B2: Ref 3 (peptide)
peptide: DESTWQYWWLKR
HELM: PEPTIDE1{D.E.S.T.W.Q.Y.W.W.L.K.R.[am]}$PEPTIDE1,PEPTIDE1,2:R3-11:R3$$$V2.0
SMILES: CC(C)C[C@@H]1NC(=O)[C@H](Cc2c[nH]c3ccccc23)NC(=O)[C@H](Cc2c[nH]c3ccccc23)NC(=O)[C@H](Cc2ccc(O)cc2)NC(=O)[C@H](CCC(N)=O)NC(=O)[C@H](Cc2c[nH]c3ccccc23)NC(=O)[C@H]([C@@H](C)O)NC(=O)[C@H](CO)NC(=O)[C@@H](NC(=O)[C@@H](N)CC(=O)O)CCC(=O)NCCCC[C@@H](C(=O)N[C@@H](CCCNC(=N)N)C(N)=O)NC1=O
IC50 (pSTAT3) [1]: > 1 µM

Molecule: Ac-DECWQCWWLKR-NH2 (lactam 2-10; linker 3-6 via 1,3‑dibromopropan‑2‑one) [Ref 5]
IC50 (pSTAT3) [1]: > 1 µM

Molecule: Ac-DESCWQCWWKR-NH2 (lactam 2-10; linker 4-7 via 1,3‑dibromopropan‑2‑one) [Ref 7]
IC50 (pSTAT3) [1]: > 1 µM

The next lines start with the values.

Ki (human IL-23R; [3]): 5.09 nM
Ki (human IL-23R; [2]): 5.1 nM
Molecule: CC(C)C[C@]1(C)NC(=O)[C@H](Cc2ccc3ccccc3c2)NC(=O)[C@H](Cc2ccc(OCCN)cc2)NC(=O)[C@@H]2CSCC(=O)CSC[C@H](NC(=O)[C@H](CO)NC(=O)c3ccc(cc3)CCNC(=O)CC[C@@H](C(=O)N[C@@H](CCCNC(=N)N)C(N)=O)NC1=O)C(=O)N[C@@H](Cc1c[nH]c3ccccc13)C(=O)N[C@@H](CCC(N)=O)C(=O)N2 [Compound 50, [4-(2-Aminoethyl)benzoyl](1c)*SC(2a)WQC(2a)[Y(2-aminoethoxy)][2-Nal][2-Me-Leu]E(1c)R-[NH2]] ([X20]SCWQC[AEF][2Nal][αMeL]ER-NH2; linker 3-6 via CH2COCH2; lactam N-10)

Ki (human IL-23R; hIL-23R, Ki from IC50 by Cheng-Prusoff equation, read-out: Ki determined affinity): 0.057 nM
Molecule: CC(C)C[C@]1(C)NC(=O)[C@H](Cc2ccc3ccccc3c2)NC(=O)[C@H](Cc2ccc(OCCN)cc2)NC(=O)[C@@H]2CSCC(=O)CSC[C@H](NC(=O)[C@H](CO)NC(=O)Cc3ccc(cc3)CNC(=O)CC[C@@H](C(=O)N[C@@H](CCCNC(=N)N)C(N)=O)NC1=O)C(=O)N[C@@H](Cc1c[nH]c3ccccc13)C(=O)N[C@@H](CCC(N)=O)C(=O)N2 [Compound 52, [4-Aminomethyl-phenylacetyl](1c)*SC(2a)WQC(2a)[Y(2-aminoethoxy)][2-Nal][2-Me-Leu]E(1c)R-[NH2]] ([X1]SCWQC[AEF][2Nal][αMeL]ER-NH2; linker 3-6 via CH2COCH2; lactam N-10)

IC50 (pSTAT3) [1]: > 1 µM
B1: Ref 4 (peptide)
peptide: DESMWQMWWLKR
HELM: PEPTIDE1{[ac].D.E.S.M.W.Q.M.W.W.L.K.R.[am]}$PEPTIDE1,PEPTIDE1,3:R3-12:R3$$$V2.0
SMILES: CSCC[C@@H]1NC(=O)[C@H](CO)NC(=O)[C@@H](NC(=O)[C@H](CC(=O)O)NC(C)=O)CCC(=O)NCCCC[C@@H](C(=O)N[C@@H](CCCNC(=N)N)C(N)=O)NC(=O)[C@H](CC(C)C)NC(=O)[C@H](Cc2c[nH]c3ccccc23)NC(=O)[C@H](Cc2c[nH]c3ccccc23)NC(=O)[C@H](CCSC)NC(=O)[C@H](CCC(N)=O)NC(=O)[C@H](Cc2c[nH]c3ccccc23)NC1=O

IC50 (pSTAT3) [1]: > 1 µM
Molecule: Ac-DESCWCWWLKR-NH2 (lactam 2-10; linker 4-6 via 1,3‑dibromopropan‑2‑one) [Ref 6]
